Results published in US20060035862A1, “Tolerance of 4-(4-(2-pyrrolycarbonyl)-1-piperazinyl)-3-trifluoromethyl-benzoylguanidine in intravenous administration” (Boehringer Ingelheim Pharma KG, priority 2001, published 2006).
Structures can show the parent of a compound that is named as a salt.

Legend:
[1] = local tolerance in dogs (bolus and infusion); type: in vivo
Procedure: In the second step the appropriate ratio of HPβCD to active substance was determined from the local tolerance in dogs.

[2] = local tolerance study on rabbits (bolus and 8 minutes infusion); type: in vivo
[3] = stability of the active substance (hydrolysis); type: physicochemical; details: only anhydrous formulations are stable
Excerpt: Therefore, lyophilisates have been developed, which have to be reconstituted before use.

[4] = local tolerance after intravenous administration; type: in vivo
Procedure: When they are administered parenterally some local intolerances occasionally arise.

citrated human blood = assay: in vitro haemolysis test (solution mixed 1:1 with citrated human blood, 37° C.); type: cell-based
Excerpt: In the following description the term “active substance”, on its own or in combination, always denotes 4-(4-(2-pyrrolylcarbonyl)-1-piperazinyl)-3-trifluoromethyl-benzoylguanidine hydrochloride, unless otherwise stated. Both a monohydrate and a hemihydrate of 4-(4-(2-pyrrolylcarbonyl)-1-piperazinyl)-3-trifluoromethyl-benzoylguanidine hydrochloride may be obtained. For all the experiments the hemihydrate was used. The quantitative data used hereinafter always relate to the free base; i.e. the quantities specified correspond to the theoretical amount of free base, whereas in reality a correspondingly larger amount of hemihydrate was added. In each case glucose was used to render the solution isotonic. The isotonic nature of the solutions was checked in each case by lowering the freezing point. In in-vitro haemolysis tests in each case the solution to be tested was mixed with citrated human blood in the ratio 1:1 and kept at 37° C. during the incubation period. […]

[5] = local tolerance trial on rats (30 minutes' infusion into the caudal vein); type: in vivo

In the case of N=C(N)NC(=O)c1ccc(N2CCN(C(=O)c3ccc[nH]3)CC2)c(C(F)(F)F)c1 [active substance, 4-(4-(2-pyrrolylcarbonyl)-1-piperazinyl)-3-trifluoromethyl-benzoylguanidine hydrochloride], the local tolerance ([1]; weight ratio HPβCD to active substance 10:1, bolus, active substance concentration 10 mg/ml) was “suitable”, the local tolerance ([1]; weight ratio HPβCD to active substance 10:1, infusion, active substance concentration between 1.5 mg/ml and 3 mg/ml) was “suitable” and the local tolerance ([2]; 1% active substance solutions containing 10% HPβCD) was “locally well-tolerated”. For the same compound, the local tolerance ([2]; 1% active substance solutions with phospholipid and sodium cholate (mixed micelles)) was “locally well-tolerated”, the stability [3] was “prone to hydrolysis” and the local tolerance [4] was “locally poorly tolerated”. For the same compound, the degree of haemolysis (citrated human blood; 10 mg/ml active substance, 100 mg/ml PVP 17 PF, aqueous isotonic solution, incubation 45 minutes) was 17%, the haemolysis observed (citrated human blood; 1% aqueous isotonic active substance solution containing 10% HPβCD, incubation 45 minutes) was “no haemolysis” and the “degree of haemolysis (%)” value (citrated human blood; active substance 0.5 mg/ml, aqueous isotonic solution, no tolerance measures, incubation two hours) was 0%. For the same compound, the “degree of haemolysis (%)” value (citrated human blood; active substance 1.0 mg/ml, aqueous isotonic solution, no tolerance measures, incubation two hours) was 1%, the “degree of haemolysis (%)” value (citrated human blood; active substance 1.5 mg/ml, aqueous isotonic solution, no tolerance measures, incubation two hours) was 4% and the “degree of haemolysis (%)” value (citrated human blood; active substance 1.5 mg/ml, no tolerance measures, incubation 45 minutes) was 0%. The “degree of haemolysis (%)” value (citrated human blood; active substance 10 mg/ml, HPβCD 0 mg/ml, incubation 45 minutes) was 100%, the “degree of haemolysis (%)” value (citrated human blood; active substance 10 mg/ml, HPβCD 100 mg/ml, incubation 45 minutes) was 0% and the “degree of haemolysis (%)” value (citrated human blood; active substance 10 mg/ml, Poloxamer 188 0 mg/ml, incubation 45 minutes) was 99%. For the same compound, the “degree of haemolysis (%)” value (citrated human blood; active substance 10 mg/ml, Poloxamer 188 100 mg/ml, incubation 45 minutes) was 4%, the “degree of haemolysis (%)” value (citrated human blood; active substance 10 mg/ml, Poloxamer 188 200 mg/ml, incubation 45 minutes) was 0% and the “degree of haemolysis (%)” value (citrated human blood; active substance 10.0 mg/ml, no tolerance measures, incubation 45 minutes) was 100%. The “degree of haemolysis (%)” value (citrated human blood; active substance 10 mg/ml, phospholipid 60 mg/ml, sodium glycocholate 32 mg/ml) was 2%, the “degree of haemolysis (%)” value (citrated human blood; active substance 10 mg/ml, phospholipid 60 mg/ml, sodium glycocholate 36 mg/ml) was 7% and the “degree of haemolysis (%)” value (citrated human blood; active substance 10 mg/ml, phospholipid 75 mg/ml, sodium cholate 50 mg/ml, incubation 45 minutes) was 7%. For the same compound, the “degree of haemolysis (%)” value (citrated human blood; active substance 10 mg/ml, phospholipid 150 mg/ml, sodium cholate 100 mg/ml, incubation 45 minutes) was 0%, the haemolytic activity (citrated human blood; ratio of HPβCD to active substance 6.67:1, active substance concentration 9 mg/ml) was “not haemolytic” and the local tolerance ([5]; 0.75 mg/ml, no tolerance measures, 30 minutes' infusion into the caudal vein) was “poorly tolerated”. The local tolerance ([5]; 1.5 mg/ml with 100 mg/ml Poloxamer 188, 30 minutes infusion into the caudal vein, compared with 1.5 mg/ml without excipient) was “better tolerated”.
